Test results published in paper PMC3071374, “High Throughput Screens Yield Small Molecule Inhibitors of Leishmania CRK3:CYC6 Cyclin-Dependent Kinase” (PLoS Neglected Tropical Diseases, 2011).
Where two headings read alike, the source gives them in different places.

Assays:
WT promastigote L. major = assay: L. major promastigote growth inhibition assay (resazurin); format: cell-based; details: for inhibition of parasite growth in culture (in words): promastigotes and intra-macrophage amastigotes in culture; for IC50: 5 days at 25°C, read-out: IC50 against WT promastigote L. major
Experimental: L. major wild type promastigotes (Friedlin strain: WHO designation MHOM/JL/81/Friedlin) were grown at 25°C in HOMEM medium (Invitrogen cat no. 041-94699111) supplemented with 10% (v/v) heat inactivated foetal calf serum (HIFCS) and 1% (v/v) penicillin/streptomycin antibiotics.
CRK3 inhibitors were diluted into HOMEM medium supplemented with 10% HIFCS at twice the final screening concentration. Five-fold or ten-fold serial dilutions were carried out into HOMEM medium supplemented with 10% HIFCS. 100 µl of each drug concentration were added to a 96 well plate in duplicate. 100 µl of five-fold or ten-fold serial dilutions of 1 mM Pentamidine (Sigma) and an equivalent volume of 100% DMSO were included as positive and negative controls, in duplicate, respectively. L. major promastigote cells were diluted to a cell density of 2×10^6 cells ml^−1 in HOMEM media supplemented with 10% HIFCS and 100 µl added to all wells in 96 well plates. Plates were sealed with parafilm and incubated for 5 days at 25°C. After 5 days, 20 µl of filter sterile resazurin solution (12.5 mg resazurin salt in 100 ml PBS) (Sigma) was added to each of the wells and the plate incubated for a further 24 hours at 25°C. Fluorescence was measured using an Envision plate reader (Perkin Elmer) at 540 nm excitation wavelength and 590 nm emission wavelength.

WT amastigote L. major = assay: Intra-macrophage L. major amastigote assay; format: cell-based; details: synthesised azapurine derivatives, infected peritoneal macrophages; for IC50: read-out: IC50 against WT amastigote L. major
Experimental: Macrophages were harvested from the peritoneum of Balb/C mice, centrifuged at 1000× g for 10 minutes at 4°C and resuspended in fresh RPMI 1640 media supplemented with 10% HIFCS and 1% (v/v) Gentamicin, as described previously. Macrophages were diluted to a cell density of 5×10^5 cells ml^-1 in RPMI supplemented with 10% HIFCS and 100 μl were added to each well of a 16-well Lab-tek cavity slide (50,000 mφ/well) and incubated at 37°C, 5% CO2 for subsequent experiments. […] Inhibitors were set up in a five-fold dilution series in RPMI 1640 medium supplemented with 10% […] of inhibitor were added to the wells in serial dilution and slides incubated for 72 hours at 37°C with 5% CO2. After 72 hours the medium was removed and replaced with fresh medium containing the same concentrations of inhibitors and incubated for a further 48 hours at 37°C with 5% CO2. At the end of the incubation period, the medium was removed, the slides were washed twice with fresh RPMI 1640 medium supplemented with 10% HIFCS then fixed with 100% methanol and stained with 10% Giemsa's stain for 10 minutes. The percentage of infected macrophages and number of amastigotes per macrophage were determined by light microscopy under oil immersion.

Leishmania CRK3:CYC6 = Leishmania CRK3:CYC6 (Leishmania major, UniProt O96526); format: biochemical
Sequence of Leishmania CRK3:CYC6 (Q4Q4U0 entry or part of it): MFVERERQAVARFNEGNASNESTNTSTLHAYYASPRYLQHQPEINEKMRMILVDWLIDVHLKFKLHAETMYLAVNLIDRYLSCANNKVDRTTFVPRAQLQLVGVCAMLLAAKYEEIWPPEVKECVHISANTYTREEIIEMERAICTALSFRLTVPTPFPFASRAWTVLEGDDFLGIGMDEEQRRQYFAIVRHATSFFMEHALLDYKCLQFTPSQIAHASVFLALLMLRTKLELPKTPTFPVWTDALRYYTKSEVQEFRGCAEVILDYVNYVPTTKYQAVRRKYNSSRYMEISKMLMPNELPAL
Sequence of Leishmania CRK3:CYC6 (O96526 entry or part of it): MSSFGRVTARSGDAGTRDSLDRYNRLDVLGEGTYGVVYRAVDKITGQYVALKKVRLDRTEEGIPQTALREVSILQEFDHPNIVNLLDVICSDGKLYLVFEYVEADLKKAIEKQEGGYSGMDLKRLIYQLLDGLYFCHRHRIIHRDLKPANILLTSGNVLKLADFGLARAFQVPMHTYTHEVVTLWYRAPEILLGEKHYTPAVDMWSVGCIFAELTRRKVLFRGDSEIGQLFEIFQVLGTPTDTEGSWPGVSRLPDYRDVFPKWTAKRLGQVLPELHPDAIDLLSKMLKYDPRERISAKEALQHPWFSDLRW
Experimental: (§1) Leishmania CRK3:CYC6 protein kinase assays were performed in 96-well microtiter plates in a final volume of 25 µl. Each assay point contained 7.5 ng of co-expressed histidine-tagged CRK3:CYC6 protein kinase complex (hereafter referred to as CRK3:CYC6) diluted in enzyme dilution buffer (EDB) (20 mM Tris-HCl pH 7.2, 0.5 mg ml^−1 BSA, 2.5% glycerol and 0.006% Brij-35). Assays were performed using the assay development buffer (ADB) (20 mM MOPS, pH 7.0, 25 mM β-glycerophosphate, 5 mM EGTA, 1 mM NaVO3, 1 mM DTT and 15 mM MgCl2) supplemented with 100 µM ATP, 0.5 µCi of γ-^32P ATP per reaction and histone H1 as a substrate used at 0.4 mg ml^−1. Two and three-fold titrations were set up to determine the concentration of enzyme to be used per assay point (7.5 ng) and to determine the concentrations of selected inhibitors required for 50% inhibition of Leishmania CRK3:CYC6 protein kinase activity (IC50 values), respectively. For IC50 determinations, assay mixes contained DMSO to a final concentration of 2%. Mammalian protein kinase assays were carried out according to the assay protocols developed at Cyclacel. Assays were carried out for 30 minutes at 30°C before stopping the reaction by the addition of an equal volume (25 µl) of 75 mM orthophosphoric acid. Samples were spotted onto a p81 cellulose filterplate (Nunc) and a vacuum applied. Wells were washed 3×200 µl with 75 mM phosphoric acid and the bottom of the plate sealed. 50 µl of Microscint 40 (Perkin Elmer) was added per well before incorporation of radioactivity was determined on a Topcount microplate scintillation counter.

human CDK2:CycA = human CDK2:CycA (Homo sapiens, UniProt P24941); assay: Mammalian protein kinase assay / counter screen, CDK2:CYCA; format: biochemical; details: BioFocus SFK48 HTS hits, re-screen
Experimental: as §1

[1] = synthesised azapurine derivatives
[2] = BioFocus SFK48 HTS hits, rescreen

Row | Compound | activity towards promastigote L. major (in words) (WT promastigote L. major) | IC50 (WT promastigote L. major; [1]) | IC50 (WT amastigote L. major) | IC50 (Leishmania CRK3:CYC6; [1]) | IC50 (human CDK2:CycA) | IC50 (WT promastigote L. major; BioFocus SFK48 HTS hits) | IC50 (Leishmania CRK3:CYC6; [2]) | other results
1 | COc1ccc(Cn2nnc3c(NCc4ccccn4)nc(CC4CCCCC4)nc32)cc1 [Compound 17] | showed a range of activity | 7.4 µM | 5 to 15 µM | 39.1 µM |  |  |  | inhibition of parasite growth in culture (in words) (WT promastigote L. major): inhibited parasite growth in culture
2 | COc1ccc(Cn2nnc3c(N4CCOCC4)nc(CC4CCCCC4)nc32)cc1 [Compound 20] |  |  |  |  |  |  |  | inhibition of CRK3/CYC6 in vitro (in words) (Leishmania CRK3:CYC6): did not inhibit
3 | COc1ccc(-n2nnc3c(O)nc(Cc4ccc(Br)cc4)nc32)cc1 [Compound 26] |  |  |  | > 50 µM |  |  |  | 
4 | COc1ccc(-n2nnc3c(N4CCOCC4)nc(CC4CCCCC4)nc32)cc1 [Compound 27] | showed a range of activity | 28.7 µM | 15 to 30 µM | 30.3 µM |  |  |  | inhibition of parasite growth in culture (in words) (WT promastigote L. major): inhibited parasite growth in culture
5 | COc1ccc(-n2nnc3c(NCCN4CCOCC4)nc(CC4CCCCC4)nc32)cc1 [Compound 28] | showed a range of activity | 8.3 µM | 5 to 15 µM | > 50 µM |  |  |  | inhibition of parasite growth in culture (in words) (WT promastigote L. major): inhibited parasite growth in culture; inhibition of CRK3/CYC6 in vitro (in words) (Leishmania CRK3:CYC6): did not inhibit
6 | COc1ccc(-n2nnc3c(NCCN4CCOCC4)nc(Cc4ccccc4)nc32)cc1 [Compound 30] | showed a range of activity | 3.8 µM |  | > 100 µM |  |  |  | inhibition of parasite growth in culture (in words) (WT promastigote L. major): inhibited parasite growth in culture; activity against amastigotes (in words) (WT amastigote L. major): Activity observed at 10 μM
7 | COc1ccc(-n2nnc3c(N4CCCC(CO)C4)nc(Cc4ccccc4)nc32)cc1 (stereo not drawn) [Compound 31] | showed a range of activity | 40 µM |  | > 20 µM |  |  |  | activity against amastigotes (in words) (WT amastigote L. major): Activity observed at 25 μM
8 | COc1ccc(-n2nnc3c(NCC(C)O)nc(Cc4ccccc4)nc32)cc1 (stereo not drawn) [Compound 32] |  | > 50 µM | > 25 µM | > 100 µM |  |  |  | 
9 | ONc1nc(CC2CCCCC2)nc2c1nnn2Cc1ccc(F)cc1 [Compound 35] |  | > 50 µM | > 50 µM | > 50 µM |  |  |  | 
10 | NC(c1ccccc1)c1csc(NC(=O)Nc2ccccc2)n1 (stereo not drawn) [Compound 36] |  |  |  |  | > 20 µM | 26.8 µM | 3.5 µM | 
11 | NC(c1ccccc1)c1csc(NC(=O)Nc2ccccc2Cl)n1 (stereo not drawn) [Compound 37] |  |  |  |  | > 20 µM | 27.5 µM | 4.8 µM | 
12 | COc1ccc(CC(N)c2csc(NC(=O)Nc3ccccc3Oc3ccccc3)n2)cc1 (stereo not drawn) [Compound 38] |  |  |  |  | > 20 µM | 3.3 µM | 5 µM | 
13 | COc1ccc(C(N)c2csc(NC(=O)Nc3ccc(C(C)C)cc3)n2)cc1 (stereo not drawn) [Compound 39] |  |  |  |  | > 20 µM | 3.8 µM | 7.5 µM | 
14 | CC(C)c1ccccc1NC(=O)Nc1nc(C2CCC(=O)N2)cs1 (stereo not drawn) [Compound 40] |  |  |  |  | > 20 µM | > 50 µM | 7.8 µM | 
15 | Cc1ccccc1NC(=O)Nc1nc(C(N)c2ccccc2Cl)cs1 (stereo not drawn) [Compound 41] |  |  |  |  | > 20 µM | 26.1 µM | 9 µM | 
16 | NC(c1ccccc1)c1csc(NC(=O)Nc2ccc(OC(F)(F)F)cc2)n1 (stereo not drawn) [Compound 42] |  |  |  |  | > 20 µM | 6.9 µM | 10 µM | 
